Experimental findings from patent publication US20100074897A1, “Methods and Compositions related to HIF-1 alpha” (University of Utah Research Foundation, priority 2006, published 2010) are described below.

One data set concerns U-2 OS cells. Kind of data set: immunofluorescent staining of γ-H2AX foci (DNA DSBs). In kind it is cell-based. As to the method: To ascertain the functional relevance of NBS1 repression by hypoxia, the extent of DNA damage was assessed by immunofluorescent staining of γ-H2AX foci, a most sensitive method for quantifying DNA DSBs (Rogakou et al, 1998, 1999). […] Furthermore, results also show strikingly colocalized foci of γ-H2AX and 53BP1, the latter of which is known to interact with various DNA repair proteins including γ-H2AX in response to DSBs (Schultz et al, 2000). Thus, hypoxic cells experience DNA DSBs, presumably resulting from the NBS1 repression.
Immunofluorescence staining was performed essentially as described previously (Rogakou et al, 1999) with mouse anti-γ-H2AX antibody (Upstate) and rabbit anti-53BP1 (Novus Biologicals). Secondary antibodies were anti-mouse Alexa-546 and anti-rabbit Alexa-488 (Molecular Probes). Samples were mounted in antifade media, and were examined by fluorescent and laser-scanning confocal microscopy with a Nikon PCM 2000.

The next data set concerns the target T1, recombinant PKD1 (Homo sapiens, UniProt Q15139).
T1 construct: purchased Upstate Biotechnology
T1 sequence (Q15139 1-912): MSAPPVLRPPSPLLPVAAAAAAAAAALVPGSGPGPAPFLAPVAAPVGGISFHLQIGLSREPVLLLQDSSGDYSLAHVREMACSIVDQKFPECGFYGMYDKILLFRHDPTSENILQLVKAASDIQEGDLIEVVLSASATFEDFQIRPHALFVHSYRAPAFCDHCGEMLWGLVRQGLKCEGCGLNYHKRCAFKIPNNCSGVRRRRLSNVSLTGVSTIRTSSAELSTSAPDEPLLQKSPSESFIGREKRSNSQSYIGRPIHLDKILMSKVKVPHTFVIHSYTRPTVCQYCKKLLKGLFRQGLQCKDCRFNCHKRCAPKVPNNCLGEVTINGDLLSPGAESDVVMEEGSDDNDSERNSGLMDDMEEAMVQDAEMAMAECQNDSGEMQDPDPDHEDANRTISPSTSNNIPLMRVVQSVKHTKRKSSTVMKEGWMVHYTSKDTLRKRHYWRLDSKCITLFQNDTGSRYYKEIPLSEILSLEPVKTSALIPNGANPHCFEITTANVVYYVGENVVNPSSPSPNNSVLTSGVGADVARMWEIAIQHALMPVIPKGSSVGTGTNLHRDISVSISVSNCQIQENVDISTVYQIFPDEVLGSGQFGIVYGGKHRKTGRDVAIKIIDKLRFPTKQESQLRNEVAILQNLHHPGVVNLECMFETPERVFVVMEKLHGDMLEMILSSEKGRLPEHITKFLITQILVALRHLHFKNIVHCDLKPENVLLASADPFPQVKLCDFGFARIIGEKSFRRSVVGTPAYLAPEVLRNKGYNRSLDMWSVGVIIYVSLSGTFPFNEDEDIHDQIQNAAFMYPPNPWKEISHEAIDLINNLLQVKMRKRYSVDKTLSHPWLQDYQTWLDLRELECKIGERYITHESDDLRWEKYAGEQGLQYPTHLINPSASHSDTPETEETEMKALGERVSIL
As to the kind of experiment: in vitro kinase assay. The data set is classed as biochemical. As to the method: The procedure for the in vitro kinase assay was modified from a previous report (Storz et al, 2003). Briefly, recombinant PKD1 (Upstate Biotechnology) was used as the source of enzyme in 20 μl of kinase buffer (50 mM Tris/HCl, pH 7.4, 10 mM MgCl2, 2 mM dithiothreitol). The kinase reaction was carried out for 30 min at room temperature after addition of 10 μl of kinase substrate mixture (150 μM substrate peptide, 50 μM ATP, 10 μCi of [γ-^32P]ATP in kinase buffer). A PKD1-specific substrate (Santa Cruz Biotechnology) was employed as a positive control. […] The reactions were terminated by adding 100 μl of 0.75% H3PO4, and 30 μl of the mixed supernatant was spotted to P-81 phosphocellulose paper (Whatman) in triplicates. Papers were washed thoroughly three times with 0.75% phosphoric acid, once with acetone, dried, and radioactivity incorporated into the synthetic peptide was determined in a scintillation counter. Endogenous PKD1 was immunoprecipitated with an anti-PKD1 antibody (SC-935; Santa Cruz) from 786-O cells lysed in a buffer containing 137 mM NaCl, 20 mM Tris (pH 7.5), 1 mM EGTA, 1 mM EDTA, 10% (v/v) glycerol, 1% (v/v) Nonidet P-40, 1 mM vanadate, and protease inhibitor cocktail (Roche). The immune complexes were washed three times with TBS (50 mM Tris/HCl, pH 7.4, 150 mM NaCl) and subjected to in vitro kinase assays.

The test system of data set [1] is Sp1. Kind of data set: anti-Sp1 immunoprecipitation followed by immunoblotting in HeLa cells. The data set is classed as cell-based. Conditions: for Sp1 binding: expressed ectopically in HeLa cells. As to the method:
(§1) Immunoprecipitations and Western blot was performed essentially as described previously (Huang et al., 1998; Koshiji et al., 2005). In vitro translation and immunoprecipitations are described as before (Gu et al., 2001; Koshiji et al., 2005). The wheat germ extract system was purchased from Promega. λ protein phosphatase (New England Biolabs) and resveratrol (Sigma) with indicated concentrations were added to the in vitro translated products before immunoprecipitations.
A general note: A western blot detects proteins with antibodies after separation by electrophoresis.

Data set [2] has as its system Sp1. Kind of data set: anti-Sp1 immunoprecipitation of in vitro translated products. The data set is classed as binding, rabbit. Conditions: for Sp1 binding: produced in wheat germ extract (modification-deficient). As to the method:
(§2) Previously, it was shown that Myc displacement is mediated by the N-terminal HIF-1α (1-329), which competes with Myc for Sp1 binding in the MSH2 promoter (Koshiji et al, 2005). […] […] […] Of note, removal of part of the PAS-B from the C terminus (codon 299-329) destroyed Sp1 binding.
(§3) Immunoprecipitations and Western blot was performed essentially as described previously (Huang et al., 1998; Koshiji et al., 2005). In vitro translation and immunoprecipitations are described as before (Gu et al., 2001; Koshiji et al., 2005). […]

In data set [3] the target is T2, Sp1 (Oryctolagus cuniculus, UniProt G1SL61).
T2 construct: from tissue; host or cells: rabbit reticulocyte lysate (in vitro translation system)
T2 sequence (G1SL61 1-788): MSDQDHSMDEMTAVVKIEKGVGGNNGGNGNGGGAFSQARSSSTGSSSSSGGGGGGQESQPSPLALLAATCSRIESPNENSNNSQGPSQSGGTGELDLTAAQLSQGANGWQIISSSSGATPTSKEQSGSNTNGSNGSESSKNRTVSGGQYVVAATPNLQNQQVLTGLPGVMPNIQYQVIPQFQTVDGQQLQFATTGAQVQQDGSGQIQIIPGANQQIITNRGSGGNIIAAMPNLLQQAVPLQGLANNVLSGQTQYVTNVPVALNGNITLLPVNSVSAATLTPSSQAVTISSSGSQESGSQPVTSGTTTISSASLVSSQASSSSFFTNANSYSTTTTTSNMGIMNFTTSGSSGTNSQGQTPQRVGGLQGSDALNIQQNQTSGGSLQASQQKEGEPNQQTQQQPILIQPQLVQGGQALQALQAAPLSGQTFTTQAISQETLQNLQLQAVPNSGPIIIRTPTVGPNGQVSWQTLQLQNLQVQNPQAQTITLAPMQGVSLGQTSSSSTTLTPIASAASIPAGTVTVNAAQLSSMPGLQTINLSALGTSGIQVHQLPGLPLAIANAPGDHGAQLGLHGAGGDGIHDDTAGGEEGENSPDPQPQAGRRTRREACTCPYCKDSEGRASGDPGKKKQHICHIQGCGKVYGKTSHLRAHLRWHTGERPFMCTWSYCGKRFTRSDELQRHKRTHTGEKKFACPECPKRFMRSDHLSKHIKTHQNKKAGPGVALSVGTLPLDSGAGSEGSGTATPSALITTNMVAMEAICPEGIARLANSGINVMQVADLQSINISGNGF
The description is as above. Particulars: for Sp1 binding: translated in rabbit reticulocyte lysate; for competition with PAS1B for Sp1 binding: in vitro translated PAS1B, peptide 10, 100 and 1000 pmol. In kind it is binding, rabbit. As to the method: as §2, §3

In data set [4] the test system is NBS1. As to the kind of experiment: NBS1 mRNA levels by real-time PCR in HCT116 cells. Conditions: adenovirus infection 16 h. In kind it is cell-based, human. As to the method:
HCT116 TP53^+/+, HCT116 TP53^−/− cells (Koshiji et al., 2004), and U-2 OS were grown in McCoy's 5A medium (Invitrogen), and HeLa cells in DMEM. For hypoxic treatment, cells were incubated in a hypoxic chamber (Innova CO-48, New Brunswick Scientific) maintaining 1% O2 and 5% CO2. Recombinant adenovirus generation and infection were as previously described (Koshiji et al., 2004).
Total RNA extraction, reverse transcription, and quantitative PCR were performed essentially as described previously (Koshiji et al., 2005). Taqman Gene Expression Assay kits for NBS1, MRE11A, RAD50, MSH2, and ACTB were purchased from Applied Biosystems. All experiments were repeated three times in triplicates, and representative results were presented as means±standard errors.
A general note: In qPCR the cycle at which signal appears reflects the starting amount.

Data set [5] concerns NBS1. As to the kind of experiment: NBS1 protein levels by immunoblot in U-2 OS cells expressing PAS-B variants. Particulars: forced expression in U-2 OS cells. In kind it is cell-based. As to the method:
as §1
U-2 OS cells were transfected with the Nucleofector system (Amaxa). Briefly, 1×10^6 cells were suspended in 100 μl pre-warmed Nucleofector Solution Kit V containing 2 μg plasmids. After electroporation the cells were transferred immediately into pre-warmed complete McCoy's 5A medium and seeded in 6-well plates. Cells were harvested 48 h after transfection.

In data set [6] the target is synthetic peptide including HIF-2α residues 314-331.

As for `CC(=O)N(O)CCCCCNC(=O)CCC(=O)N(O)CCCCCNC(=O)CCC(=O)N(O)CCCCCN` [Desferrioxamine, reference compound], in the data set on U-2 OS cells (U-2 OS cells treated with desferrioxamine, versus hypoxia), the “intensified γ-H2AX foci” value was “much greater increase”. For the same molecule, the “γ-H2AX foci per cell, Mean” value with U-2 OS cells (U-2 OS cells, desferrioxamine conditions for 72 h) is given as 40.62 foci per cell.

Take `Oc1ccc(C=Cc2cc(O)cc(O)c2)cc1` [resveratrol, reference compound]: the “PKD1-mediated phosphorylation of consensus substrate peptide and HIF-2α peptide” value at recombinant PKD1 (recombinant PKD1 preincubated with resveratrol (100 μM) for 10 min) is “abrogated”. In addition, the PAS2B-Sp1 immunoprecipitated complexes result in the data set on Sp1 [1] (HeLa cells expressing PAS2B treated with 5 nM of resveratrol) is given as “yielded PAS2B-Sp1 immunoprecipitated complexes”. Moreover, in the data set on Sp1 [2] (100 μM during synthesis of PAS2B in rabbit reticulocyte lysate), the “Sp1 binding of PAS2B” value is reported as “established Sp1 binding”.

As for “Ac-YGRKKRRQRRRGGGVWLETQGTVIYNPRN L-NH2 [HIF-2α peptide]”, at recombinant PKD1 (150 μM substrate peptide, 30 min, room temperature), the “phosphorylation of peptide substrate by recombinant PKD1” value is “robustly phosphorylated”.

On to “HIF-2α: full-length HIF-2α, a close member of the HIF-α family”, for which the Sp1 binding result is reported as “no Sp1 binding was detected” with Sp1 [1] and “neither full-length HIF-2α nor PAS2B exhibited Sp1-binding activity” with Sp1 [3]. Further, the NBS1 repression entry in the data set with NBS1 [4] is recorded as “no inhibition”.

Regarding “PAS1B T322E: PAS1B mutant mimicking phosphorylation at Thr-322 with glutamic acid substitution”, in the data set with NBS1 [5], the NBS1 protein levels result is reported as “failed to do so”. The Sp1 binding entry with Sp1 [3] was “lost Sp1 binding”.

As for PAS1B T322V: PAS1B with T322V mutation, the Sp1 binding entry with Sp1 [3] was “maintained PAS1B activity”.

With “PAS1B T327P: PAS1B with Thr-327 replaced by the HIF-2α residue proline”, in the data set with Sp1 [3], the “competition with PAS1B for Sp1 binding” value is given as “neither PAS2B nor the PAS1B T327P mutant was able to compete” and the Sp1 binding result is given as “lost Sp1 binding”. For the same molecule, the Sp1 binding entry in the data set with Sp1 [2] was “regained binding”.

Consider “PAS2B T324V: PAS2B with Thr-324 mutated to valine”, for which the “γ-H2AX foci colocalized with 53BP1” value in the data set on U-2 OS cells (U-2 OS cells transiently expressing PAS-B variants) is given as “significantly increased”. Besides, the NBS1 protein levels entry in the data set on NBS1 [5] was “gained its ability to inhibit NBS1 protein levels”. Moreover, the Sp1 binding result with Sp1 [3] is recorded as “established binding”.

Regarding PAS2B: HIF-2α PAS-B (codons 195-331), the Sp1 binding entry was “no Sp1 binding was detected” in the data set with Sp1 [1], “neither full-length HIF-2α nor PAS2B exhibited Sp1-binding activity” in the data set with Sp1 [3] and “regained binding” in the data set with Sp1 [2]. Besides, the “competition with PAS1B for Sp1 binding” value in the data set with Sp1 [3] is listed as “neither PAS2B nor the PAS1B T327P mutant was able to compete”.

B1: endogenous PKD1 immunoprecipitated from 786-O cells (protein)
chain: MSAPPVLRPPSPLLPVAAAAAAAAAALVPGSGPGPAPFLAPVAAPVGGISFHLQIGLSREPVLLLQDSSGDYSLAHVREMACSIVDQKFPECGFYGMYDKILLFRHDPTSENILQLVKAASDIQEGDLIEVVLSASATFEDFQIRPHALFVHSYRAPAFCDHCGEMLWGLVRQGLKCEGCGLNYHKRCAFKIPNNCSGVRRRRLSNVSLTGVSTIRTSSAELSTSAPDEPLLQKSPSESFIGREKRSNSQSYIGRPIHLDKILMSKVKVPHTFVIHSYTRPTVCQYCKKLLKGLFRQGLQCKDCRFNCHKRCAPKVPNNCLGEVTINGDLLSPGAESDVVMEEGSDDNDSERNSGLMDDMEEAMVQDAEMAMAECQNDSGEMQDPDPDHEDANRTISPSTSNNIPLMRVVQSVKHTKRKSSTVMKEGWMVHYTSKDTLRKRHYWRLDSKCITLFQNDTGSRYYKEIPLSEILSLEPVKTSALIPNGANPHCFEITTANVVYYVGENVVNPSSPSPNNSVLTSGVGADVARMWEIAIQHALMPVIPKGSSVGTGTNLHRDISVSISVSNCQIQENVDISTVYQIFPDEVLGSGQFGIVYGGKHRKTGRDVAIKIIDKLRFPTKQESQLRNEVAILQNLHHPGVVNLECMFETPERVFVVMEKLHGDMLEMILSSEKGRLPEHITKFLITQILVALRHLHFKNIVHCDLKPENVLLASADPFPQVKLCDFGFARIIGEKSFRRSVVGTPAYLAPEVLRNKGYNRSLDMWSVGVIIYVSLSGTFPFNEDEDIHDQIQNAAFMYPPNPWKEISHEAIDLINNLLQVKMRKRYSVDKTLSHPWLQDYQTWLDLRELECKIGERYITHESDDLRWEKYAGEQGLQYPTHLINPSASHSDTPETEETEMKALGERVSIL
Consider B1, for which the “in vitro kinase assay with immunoprecipitated endogenous PKD1 and synthetic peptides” value in data set [6] was “endogenous PKD1 immunoprecipitated from 786-O cells specifically phosphorylated HIF-2α at Thr-324”.
